Data published in US10308911B2, “Methods for generating the inner ear and other cranial placode-derived tissues using pluripotent stem cells” (Indiana University Research & Technology Corporation, priority 2012, dated 2019).
“Also recorded” adds a separate entry of the source.

Columns and labels:
Format in all cases: cell-based, mouse
ESC aggregates [1] = experiment: Otic placode and otic vesicle induction (Pax2/Pax8/Ecad expression, vesicle counts)
Description: On day 8 of differentiation, cell aggregates are transferred to 24 well plates (Lipidure Coat, NOF; 4-8 aggregates per well) in N2 Medium containing 1% MATRIGEL™ (a gelatinous protein mixture secreted by Engelbreth-Holm-Swarm (EHS) mouse sarcoma cells) (v/v). N2 Medium contains Advanced DMEM/F12, 1×N2 Supplement, 1 mM Penicillin/Streptomycin or 50 μg/mL Normocin (Invivogen) and 1 mM GlutaMax.
(§1) The following small molecules and recombinant proteins were used: recombinant human BMP4 (10 ng/mL; Stemgent), human FGF2 (25 ng/mL; Peprotech), XAV939 (1 μM; Santa Cruz), SU5402 (10 μM; BioVision), SB-431542 (1 μM; Tocris Bioscience), and LDN-193189 (100 nM; Stemgent).
(§2) RNA was isolated using the RNeasy Minikit (Qiagen) and treated with TURBO DNase (Ambion). Single-stranded cDNA was synthesized using Omniscript reverse transcriptase (Qiagen) and Oligo-dT primers. All amplicons had standardized sizes of 100-110 bps. cDNA samples were amplified on an ABI PRISM 7900HT Sequence Detection System (Applied Biosystems) using the SYBR Green PCR Master Mix (Applied Biosystems). For each PCR reaction, a mixture containing cDNA template (5 ng), Master Mix, and forward and reverse primers (400 nM each) was treated with uracil N-glycosylase at 50° C. for 2 min before undergoing the following program: 1 cycles, 95° C., 10 min; 45 cycles, 95° C., 15 sec, 60° C., 1 min; 1 cycles, 95° C., 15 sec, 60° C., 15 sec, 95° C., 15 sec; 72° C., hold. Melting curve analysis was performed to confirm the authenticity of the PCR product. The mRNA level for each gene was calculated relative to L27 mRNA expression.
The percentage of epithelial cells expressing Pax8/Ecad was established by analyzing serial sections of day 6 and 8 aggregates. Data are representative of 6-8 aggregates from at least 3 separate experiments. For analysis of each aggregate, 5 cryosections were chosen at random positions along the z-axis of the aggregate. Using Nikon Elements or NIH ImageJ software, the Ecad^+ outer-epithelium was outlined and cell counting of DAPI and Pax8^+ nuclei along the length of the epithelium established a percentage for each cryosection.
Similarly, the number of Myo7a^+ hair cells in each day 20 aggregate was determined by analyzing 10 μm serial cryosections. Each biological sample represents the average number of hair cells counted in 4-6 cell aggregates and data are representative of the average from 3 separate experiments (15 aggregates total for each condition). Odd and even numbered cryosections were analyzed separately and averaged to avoid double counting. The number of vesicles was quantified similarly, but every third section was analyzed to avoid double counting and allow for analysis of three separate staining combinations. Vesicles with a long axis diameter larger than 30 μm were accounted for to avoid double counting.

ESC aggregates [2] = experiment: Pre-placodal ectoderm induction in BMP/SB aggregates (marker expression, epithelial thickness)
Description: On day 4-5, the differentiation medium is replaced with differentiation medium containing FGF2 in a final concentration range of about 5 ng/ml to about 100 ng/ml (with a preferred final concentration of about 25 ng/mL) or another FGF selected from FGF 1-FGF23), and a BMP inhibitor. In some embodiments, the BMP inhibitor is LDN-193189 (CAS No. 1062368-24-4 at about 100 nM). Alternatively, DMH1 (CAS No. 1206711-16-1) or Dorsomorphin (CAS No. […]) can be used as the BMP inhibitor were added to each well at 6× concentration in 25 μL of fresh media. The extracellular matrix protein concentration (e.g., MATRIGEL™ (a gelatinous protein mixture secreted by Engelbreth-Holm-Swarm (EHS) mouse sarcoma cells) at 2% (v/v)) is maintained throughout days 1-8. Culture of the non-neural ectoderm cells under these conditions yields preplacodal ectoderm, epithelium characterized by expression of at least one of Dlx3, Dlx5, Pax2, Pax8 and Eya1. The concentration of MATRIGEL™ (a gelatinous protein mixture secreted by Engelbreth-Holm-Swarm (EHS) mouse sarcoma cells) or another extracellular matrix protein, as mentioned herein, is maintained at 2% (v/v) throughout days 1-8.
as §1, §2
Aggregates were fixed with 4% paraformaldehyde. […]
The apparent thickness of epithelia was determined by analyzing cryosections stained with Ncad (Control) or Ecad antibodies (all other conditions) on days 3-6. […] For each aggregate, 3 serial sections were analyzed. Five points along the epithelium were randomly chosen and the thickness was measured using Nikon Elements image analysis tools.

ESC aggregates [3] = experiment: Non-neural ectoderm induction in SFEBq 3D culture (qPCR, immunostaining)
Description: In an exemplary embodiment using mES cells, during days 0-3, serum-free floating culture of embryoid body-like aggregate with quick reaggregation (SFEBq) to generate EBs is initiated by dissociation of adherent mES cells into a cell suspension by trypsinization (e.g., with 0.25% Trypsin-EDTA, and resuspended in “Differentiation Medium”. Differentiation Medium is composed of Glasgow Minimal Essential Medium (G-MEM) supplemented with 1.5% knockout serum replacement (KSR; Invitrogen), 0.1 mM non-essential amino acids, 1 mM sodium pyruvate, 1 mM Penicillin/Streptomycin and 1 mM 2-mercaptoethanol. Cells are then plated in 100 μl/well in a range of about 1,000-15,000 cells, but preferably about 3000 cells, a in 96-well low cell adhesion U-bottom plates. On day 1, half of the medium in each well is exchanged for fresh Differentiation Medium containing an extracellular matrix protein, e.g., MATRIGEL™ (a gelatinous protein mixture secreted by Engelbreth-Holm-Swarm (EHS) mouse sarcoma cells) (2% v/v final concentration), laminin (50-400 μg/ml), or laminin plus entactin (50-400 μg/ml each).
On day 3 after initiating formation of EBs, a BMP, e.g., BMP2, BMP4, or BMP7 and a TGFβ inhibitor are added to the culture medium. The concentration of BMP, e.g., BMP4, to be used in the method can range from at least about 1 ng/ml to about 50 ng/ml, e.g., about 2 ng/ml, 4 ng/ml, 5 ng/ml, 7 ng/ml, 12 ng/ml, 15 ng/ml, 20 ng/ml, 25 ng/ml, 32 ng/ml, 40 ng/ml, or another concentration of a BMP from at least about 1 ng/ml to about 50 ng/ml. In some embodiments, the BMP to be used is BMP4 at a concentration of about 10 ng/ml. BMP 4. In some embodiments, the TGFβ inhibitor to be used is SB 431542 (CAS No. 301836-41-9, at a final concentration of about 1 μM). Alternatively, any of the following TGFβ inhibitors may be used: A 83-01 (CAS No. 909910-43-6), GW 788388 (CAS No. 452342-67-5), LY 364947 (CAS No. 396129-53-6), RepSox (CAS No. 446859-33-2), SB 505124 (CAS No. 694433-59-5), SB 525334 (CAS No. 356559-20-1), or SD 208 (CAS No. […]) at a concentration of about 0.1 μM to about 5 μM.
as §1
RNA was isolated using the RNeasy Minikit (Qiagen) and treated with TURBO DNase (Ambion). Single-stranded cDNA was synthesized using Omniscript reverse transcriptase (Qiagen) and Oligo-dT primers. […] The mRNA level for each gene was calculated relative to L27 mRNA expression. […]

[4] = qPCR of day 5 samples, 10 ng/mL BMP vs vehicle control

In the case of `Cc1c[nH]c(-c2cnc(NCCNc3ccc(C#N)cn3)nc2-c2ccc(Cl)cc2Cl)n1` [CHIR99021], the “abundance of Pax2/Ecad+ vesicles with a luminal diameter greater than 50 μm (large vesicles)” value (ESC aggregates [1]; CHIR99021 3 μM days 8-10, read on day 12) is reported as “higher abundance”.

With `c1ccc2c(-c3cnn4cc(-c5ccc(N6CCNCC6)cc5)cnc34)ccnc2c1` [LDN, LDN-193189] the “Sox1 expression after LDN treatment” value (ESC aggregates [2]; BMP/SB aggregates) was “does not induce”, the “Dlx3 expression in BMP/SB aggregates after BMP inhibition” value (ESC aggregates [2]; LDN treatment on day 4.5) was “maintained expression of Dlx3” and the “Dlx3 expression after LDN treatment” value (ESC aggregates [2]; treatment on or before day 4) was “suppresses”.

With `Oc1nc(-c2ccc(C(F)(F)F)cc2)nc2c1CSCC2` [XAV939] the “number of prosensory vesicles” value (ESC aggregates [1]; XAV939 (1 μM) from day 8-10, vesicles counted on day 12) was “significantly decreased; also recorded: decreases”, the “prevalence of Pax2+ vesicles” value (ESC aggregates [1]; XAV939 from day 8-10) was “reduced” and the “generation of otic vesicles following BMP/SB-FGF/LDN treatment” value (ESC aggregates [1]; XAV939 on days 8-10) was “blocked”.

For `NC(=O)c1ccc(-c2nc(-c3ccc4c(c3)OCO4)c(-c3ccccn3)[nH]2)cc1` [SB, SB-431542], the “level of brachyury expression induced by BMP” value (ESC aggregates [3]; SB added to BMP, n=3) was “decreases”.

For “FGF: recombinant human FGF2 (25 ng/mL; Peprotech)”, the “Pax8 expression versus FGF dosage” value (ESC aggregates [1]; qPCR, n=4, 25, 50 and 100 ng/mL not significantly different) was “dependent on FGF dosage”.

With `Cc1c[nH]c(/C=C2\C(=O)Nc3ccccc32)c1CCC(=O)O` [SU5402] the epithelial thickening (ESC aggregates [2]; SU5402 (10 μM) following BMP/SB-LDN treatment) was “abolishes epithelial thickening”.

B1: BMP4: recombinant human BMP4 (bone morphogenetic protein), 10 ng/mL; Stemgent (protein, UniProt P12644 293-408, looked up)
Bone morphogenetic protein 4: SPKHHSQRARKKNKNCRRHSLYVDFSDVGWNDWIVAPPGYQAFYCHGDCPFPLADHLNSTNHAIVQTLVNSVNSSIPKACCVPTELSAISMLYLDEYDKVVLKNYQEMVVEGCGCR
In the case of B1, the “brachyury+ cells in aggregates” value (ESC aggregates [3]; day 5, BMP-treated aggregates) is reported as 60.8±3.9%, the “neuroectoderm marker Sox1 expression” value (ESC aggregates [3]; [4]) is reported as “downregulated” and the “non-neural ectoderm marker Dlx3 expression” value (ESC aggregates [3]; [4]) is reported as “upregulated”.
